Several values for one entry are separate records, joined by “and”; a condition that tells them apart may be missing. Equal values may be shown once. Read-outs that look alike come from different tables or passages of the source. Where a SMILES comes first, the peptide text is derived from it. [ ]: non-standard residue; d: D form. NMeL = CN[C@@H](CC(C)C)C(=O)O; Sar = CNCC(=O)O
Test: Pharmacokinetics and oral bioavailability of D11.2 in male SD rats (IV, PO, SQ)
Format: in vivo
Details: for half-life: read-out: T1/2z (converted); for MRT inf: in vivo
Procedure: In vivo bioavailability assays were conducted in mice and rats. D8.3.p1 and D10.1 were studied in female Balb/C mice by van Voorhis group at University of Washington. D11.2 was evaluated in Sprague Dawley (SD) rats by Robert Griffin’s group at Takeda Pharmaceuticals. D11.3 was studied in the male swiss albino mice by the contract research organization, GVK Biosciences Pvt. Ltd., Hyderabad, India. All animals used in these studies were handled in strict accordance with practices made to minimize suffering. All animal experiments conducted at the University of Washington, USA, and Takeda Pharmaceuticals, USA were approved by the Institutional Animal Care and Use Committee. Animal studies at GVK Biosciences were reviewed and approved by the Institutional Animal Ethics Committee of GVK Biosciences.
We selected four designed macrocycles with diverse structures and in vitro rates of permeability for in vivo oral bioavailability studies in the rodent models. Due to the intensive resource requirements for such studies, these studies were conducted by three different research groups. D8.3.p1 and D10.1 were studied in female Balb/C mice by van Voorhis group at University of Washington. D11.2 was evaluated in Sprague Dawley (SD) rats by Robert Griffin’s group at Takeda Pharmaceuticals. D11.3 was studied in the male swiss albino mice by the contract research organization, GVK Biosciences Pvt. Ltd., Hyderabad, India.
We evaluated the pharmacokinetic properties for D11.2 in male SD rats (n=3). D11.2 was dissolved in 2% DMSO/0.1% Tween80 and dosed by IV, PO, and SQ routes. Plasma samples were collected at multiple time points up to 24 hours. The quantification limit was established to be 2 ng/mL for the assay conditions tested. Pharmacokinetic parameters were modeled using the Phoenix WinNonlin software package.
Dosing vehicle: DMSO (2%) + 0.1% Tween80(IV, PO, SQ)
Dose: 1 mg/kg (PO, SQ, IV) • Sampling times: 0.083, 0.25, 0.5, 1, 2, 4, 6, 8, 24 h (PO, SQ, IV)

[1] = IV 1 mg/kg, individual rats R1, R2, R3, 1 mg/kg
[2] = PO 1 mg/kg, individual rats R4, R5, R6, 1 mg/kg
[3] = SQ 1 mg/kg, individual rats R7, R8, R9
[4] = male, Sprague Dawley, rat, plasma, iv, 1 mg/kg, IV 1 mg/kg, Mean
[5] = male, Sprague Dawley, rat, plasma, iv, 1 mg/kg, IV 1 mg/kg, individual rats R1, R2, R3
[6] = male, Sprague Dawley, rat, plasma, po, 1 mg/kg, PO 1 mg/kg, Mean
[7] = male, Sprague Dawley, rat, plasma, po, 1 mg/kg, PO 1 mg/kg, individual rats R4, R5, R6
[8] = male, Sprague-Dawley, rat, plasma, subcutaneous, 1 mg/kg, SQ 1 mg/kg, Mean
[9] = male, Sprague-Dawley, rat, plasma, subcutaneous, 1 mg/kg, SQ 1 mg/kg, individual rats R7, R8, R9

CC[C@@H](C)[C@H]1NC(=O)[C@@H]2CCCN2C(=O)[C@@H]([C@H](C)CC)NC(=O)CN(C)C(=O)[C@H](CC(C)C)NC(=O)[C@@H](Cc2ccccc2)NC(=O)[C@H](CC(C)C)N(C)C(=O)[C@H]2CCCN2C(=O)[C@@H](CC(C)C)NC(=O)[C@H](CC(C)C)NC(=O)[C@H]2CCCN2C1=O [Design D11.2, DILE DPRO LEU DLEU DPRO *LEU DPHE LEU *GLY DILE PRO] (cyclo(L[Sar][dI]P[dI][dP]L[dL][dP][NMeL][dF]))
AUClast [1]: 702 ng·h/mL and 858 ng·h/mL
AUC∞ [1]: 738 ng·h/mL and 926 ng·h/mL
C0 [1]: 669 ng/mL and 1234 ng/mL
CL [1]: 22.5 mL/min/kg and 18 mL/min/kg
Cmax [1]: 796 ng/mL and 499 ng/mL
MRT∞ [1]: 2.34 h and 2.51 h
T1/2z [1]: 2.05 h and 2.74 h
Vss [1]: 3.17 L/kg and 2.72 L/kg
Vz [1]: 4.00 L/kg and 4.27 L/kg
%F [2]: 13.0% and 8.18%
AUClast [2]: 89.3 ng·h/mL and 59.1 ng·h/mL
AUC∞ [2]: 95.9 ng·h/mL and 75.8 ng·h/mL
Cmax [2]: 35.2 ng/mL and 28.2 ng/mL
MRT∞ [2]: 3.02 h and 3.86 h
T1/2z [2]: 2.06 h and 2.53 h
Tmax [2]: 0.250 h
%F [3]: 160% and 105%
AUClast [3]: 741 ng·h/mL and 841 ng·h/mL
AUC∞ [3]: 777 ng·h/mL and 853 ng·h/mL
Cmax [3]: 99.4 ng/mL and 95.1 ng/mL
MRT∞ [3]: 7.64 h and 6.14 h
T1/2z [3]: 5.00 h and 3.71 h
AUC(0-inf) [4]: 780 ng·h/mL
AUC(0-t) [4]: 734 ng·h/mL
clearance [4]: 21.8 mL/min/kg
C0 (male, Sprague Dawley, rat, plasma, iv, 1 mg/kg, IV 1 mg/kg, Mean, read-out: C0): 843 ng/mL
Cmax (male, Sprague Dawley, rat, plasma, iv, 1 mg/kg, IV 1 mg/kg, Mean, read-out: Cmax): 605 ng/mL
half-life [4]: 2.29 h
Tmax (male, Sprague Dawley, rat, plasma, iv, 1 mg/kg, IV 1 mg/kg, Mean, read-out: Tmax): 0.0833 h
Vd (male, Sprague Dawley, rat, plasma, iv, 1 mg/kg, IV 1 mg/kg, Mean, read-out: Vss): 3.04 L/kg
Vd (male, Sprague Dawley, rat, plasma, iv, 1 mg/kg, IV 1 mg/kg, Mean, read-out: Vz): 4.24 L/kg
AUC(0-inf) [5]: 674 ng·h/mL
AUC(0-t) [5]: 642 ng·h/mL
clearance [5]: 24.7 mL/min/kg
C0 (male, Sprague Dawley, rat, plasma, iv, 1 mg/kg, IV 1 mg/kg, individual rats R1, R2, R3, read-out: C0): 626 ng/mL
Cmax (male, Sprague Dawley, rat, plasma, iv, 1 mg/kg, IV 1 mg/kg, individual rats R1, R2, R3, read-out: Cmax): 519 ng/mL
half-life [5]: 2.08 h
Tmax (male, Sprague Dawley, rat, plasma, iv, 1 mg/kg, IV 1 mg/kg, individual rats R1, R2, R3, read-out: Tmax): 0.0833 h
Vd (male, Sprague Dawley, rat, plasma, iv, 1 mg/kg, IV 1 mg/kg, individual rats R1, R2, R3, read-out: Vss): 3.23 L/kg
Vd (male, Sprague Dawley, rat, plasma, iv, 1 mg/kg, IV 1 mg/kg, individual rats R1, R2, R3, read-out: Vz): 4.46 L/kg
AUC(0-inf) [6]: 84.3 ng·h/mL
AUC(0-t) [6]: 71.7 ng·h/mL
bioavailability [6]: 11.1%
Cmax (male, Sprague Dawley, rat, plasma, po, 1 mg/kg, PO 1 mg/kg, Mean, read-out: Cmax): 31.6 ng/mL
half-life [6]: 2.33 h
Tmax (male, Sprague Dawley, rat, plasma, po, 1 mg/kg, PO 1 mg/kg, Mean, read-out: Tmax): 0.416 h
AUC(0-inf) [7]: 81.3 ng·h/mL
AUC(0-t) [7]: 66.8 ng·h/mL
bioavailability [7]: 12.1%
Cmax (male, Sprague Dawley, rat, plasma, po, 1 mg/kg, PO 1 mg/kg, individual rats R4, R5, R6, read-out: Cmax): 31.3 ng/mL
half-life [7]: 2.42 h
Tmax (male, Sprague Dawley, rat, plasma, po, 1 mg/kg, PO 1 mg/kg, individual rats R4, R5, R6, read-out: Tmax): 0.5 h
Cmax (male, Sprague Dawley, rat, plasma, sc, 1 mg/kg, SQ 1 mg/kg, Mean, read-out: Cmax): 109 ng/mL
half-life (male, Sprague Dawley, rat, plasma, sc, 1 mg/kg, SQ 1 mg/kg, Mean): 4.41 h
Tmax (male, Sprague Dawley, rat, plasma, sc, 1 mg/kg, SQ 1 mg/kg, Mean, read-out: Tmax): 4 h
Cmax (male, Sprague Dawley, rat, plasma, subcutaneous, 1 mg/kg, SQ 1 mg/kg, individual rats R7, R8, R9, read-out: Cmax): 131 ng/mL
half-life (male, Sprague Dawley, rat, plasma, subcutaneous, 1 mg/kg, SQ 1 mg/kg, individual rats R7, R8, R9): 4.52 h
Tmax (male, Sprague Dawley, rat, plasma, subcutaneous, 1 mg/kg, SQ 1 mg/kg, individual rats R7, R8, R9, read-out: Tmax): 4 h
bioavailability (male, Sprague-Dawley, rat, plasma, sc, 1 mg/kg, SQ 1 mg/kg, individual rats R7, R8, R9): 92.1%
AUC(0-inf) [8]: 903 ng·h/mL
AUC(0-t) [8]: 874 ng·h/mL
bioavailability [8]: 119%
AUC(0-inf) [9]: 1080 ng·h/mL
AUC(0-t) [9]: 1040 ng·h/mL
MRT inf (rat, 1 mg/kg, SQ 1 mg/kg, Mean): 6.86 h
MRT inf (rat, 1 mg/kg, SQ 1 mg/kg, individual rats R7, R8, R9): 6.81 h
MRT inf (rat, iv, 1 mg/kg, IV 1 mg/kg, Mean): 2.35 h
MRT inf (rat, iv, 1 mg/kg, IV 1 mg/kg, individual rats R1, R2, R3): 2.18 h
MRT inf (rat, po, 1 mg/kg, PO 1 mg/kg, Mean): 3.42 h
MRT inf (rat, po, 1 mg/kg, PO 1 mg/kg, individual rats R4, R5, R6): 3.38 h
